Data published in article PMC10301001, “Radiochemical and Biological Evaluation of 3p-C-NETA-ePSMA-16, a Promising PSMA-Targeting Agent for Radiotheranostics” (Pharmaceuticals, 2023).
Values joined by “and” are separate entries in the source; they are usually repeats but may differ in a detail not shown here. Identical values can stand only once.

Experiments:
recombinant human PSMA = molecular target: T1, recombinant human PSMA (Homo sapiens, UniProt Q04609); test: fluorescence-based NAALADase enzymatic assay; format: biochemical; conditions: for IC50: rhPSMA, NAAG substrate, three assays in triplicate, read-out: IC50 (affinity to PSMA)
T1 construct: purchased R&D systems, Abingdon, UK
Experimental: The assay buffer (50 mM HEPES, 0.1 M NaCl, pH 7.5) was used to dilute the recombinant human PSMA (rhPSMA, R&D systems, Abingdon, UK) to 0.4 µg/mL, as well as the enzymatic substrate Ac-Asp-Glu (NAAG) (40 μM in assay buffer). 3p-C-NETA-ePSMA-16 and an internal reference, PSMA-617, were dissolved in assay buffer at concentrations ranging from 10^−5 to 10^−12 M. 6.25 µL of the compound were incubated with 6.25 µL of the substrate to which 12.5 µL of rhPSMA solution was added, and incubated for 1 h at 37 °C in 384-well black polystyrene microplates. Next, 25 µL of a working solution of the Amplex Red glutamic acid kit (ThermoFisher, Bleiswijk, The Netherlands) was added and incubated at 37 °C for 30 min to measure glutamate released. A HIDEX Sense Optical System (HIDEX, Goedereede, The Netherlands) was used to measure the fluorescence, with excitation set at 535 nm and emission at 590 nm. Assays were performed in triplicate and as three separate replicates. Data were normalized and analyzed using a one-site total binding regression algorithm from GraphPad Prism 9 (GraphPad Software, Boston, MA, USA).

[1] = Storage stability of the unlabeled compound; format: physicochemical
[2] = radiolabeled with 88Y, 177Lu and 205/206Bi; cited from earlier work
LS174T PSMA+ cells = test: Cell uptake and internalization assay; format: cell-based, human
Experimental: LS174T human colon carcinoma cells transfected with human PSMA were provided by Dr. Sandra Heskamp (Radboudumc, Nijmegen, The Netherlands). RPMI-1640 media supplemented with 2 mM glutamine, 10% fetal bovine serum (FBS), and 0.3 mg/mL G418 (Geneticin, Sigma Aldrich, Burlington, MA, USA) was used to culture the cells. PC-3-Pip and PC-3-Flu cells were received from Prof. Martin G. Pomper (John Hopkins University, Baltimore, MD, USA).
LS174T cells were seeded (1.2 × 10^6 cells/well) and cultured to confluency 24 h prior to the experiments. […] Blocking experiments were also performed using a 50-fold excess of either PSMA-617 or 3p-C-NETA-ePSMA-16. The media was removed, and wells were then rinsed twice with PBS at rt. To each well, we added 2 mL of the radioactive compound, which was incubated at 37 °C for 2 h. Internalization assay: the media containing the radioactive compound was removed from each well, followed by two washes with 1 mL cold PBS. Glycine buffer (1 mL, 50 mM glycine, 100 mM NaCl, pH 2.8) was immediately added to the wells prior to incubation at rt for 10 min. The glycine wash and an additional wash were collected into counting tubes (membrane-bound fraction). NaOH (1 mL, 1 M) was added to each well for 15 min at rt. The internalized fraction (lysate) and an additional NaOH wash were collected in the same tubes. Data were normalized to the added dose per 1,000,000 cells (AD/10^6 cells) and represented as counts per minute (CPM).

[3] = Transchelation/challenge study with excess EDTA; format: physicochemical; conditions: 37 °C, 24 h
Experimental: Samples were analyzed by iTLC at 1, 4, and 24 h after incubation to determine the percentage (%) of intact radioligand [16].

[4] = LogD7.4 shake-flask method; format: physicochemical; conditions: n-octanol/PBS pH 7.4, n = 3
Experimental: The distribution coefficient (LogD7.4) was determined by a shake-flask method in triplicate. […] The mixture was vortexed vigorously and then centrifuged at 5000× g for 15 min for phase separation. Samples of the two phases (3 × 10 μL) were taken out and measured using a PerkinElmer Wizard 2 γ-counter. LogD7.4 values were calculated using the following equation: LogD7.4 = log [(counts in octanol phase)/(counts in aqueous phase)] [34].

[5] = system: PSMA+ LS174T tumor xenografts; test: Ex vivo biodistribution in LS174T tumor-bearing BALB/c nude mice; parameters: species or system mouse
Experimental: (§1) We housed 8–10 weeks old male BALB/c nude mice (BALB/cAnN Rj-Nude; Janvier Labs, Le Genest-Saint-Isle, France) in individually ventilated cages (Blue line IVC, 2 mice per cage). Sterile standard conditions were employed with the presence of cage enrichment and unlimited access to water and animal chow (Sniff GmbH). Acclimatization was realized 1 week before the beginning of the experiments. Mice were subcutaneously inoculated in their right flank with LS174T cells (4.0 × 10^6) diluted in 100 µL of cell suspension. Tumors grew to an average volume of 217.8 ± 9.4 mm^3 in 7 days (average weight of 217 ± 14.4 mg), and mice were grouped non-blinded to afford homogenous tumor size distribution intra-groups. […] All experiments were in accordance with the guidelines of the Revised Dutch Act on Animal Experimentation (WOD).
Mice (n = 4/group) were euthanized via cervical dislocation at 1, 4, and 24 h post-injection (p.i.). A block group (n = 4) containing a 50-fold excess of 3p-C-NETA-ePSMA-16 was also included in the study (euthanized at 4 h p.i.). Tissues were collected in tubes, weighted, and counted in the gamma counter.

[6] = system: PSMA+ LS174T tumor xenografts; test: SPECT/CT imaging in LS174T tumor-bearing mice; format: in vivo, mouse; conditions: 1 h p.i.
Experimental: as §1
At 1 and 24 h p.i., mice were placed under 2% isoflurane/O2 anesthesia on a heated bed and imaged in a dedicated small-animal PET/SPECT/CT scanner (VECTor5CT scanner, MILabs B.V., Utrecht, The Netherlands) equipped with a high sensitivity pinhole collimator (XXUHS-M, 3.00 mm pinhole diameter). […] The CT and registered attenuation-corrected SPECT images were analyzed using IMALYTICS Preclinical 3.0 (Gremse-IT GmbH, Aachen, Germany).

[7] = 4 h p.i., block (50-fold excess unlabeled)

T1 sequence (Q04609 whole entry): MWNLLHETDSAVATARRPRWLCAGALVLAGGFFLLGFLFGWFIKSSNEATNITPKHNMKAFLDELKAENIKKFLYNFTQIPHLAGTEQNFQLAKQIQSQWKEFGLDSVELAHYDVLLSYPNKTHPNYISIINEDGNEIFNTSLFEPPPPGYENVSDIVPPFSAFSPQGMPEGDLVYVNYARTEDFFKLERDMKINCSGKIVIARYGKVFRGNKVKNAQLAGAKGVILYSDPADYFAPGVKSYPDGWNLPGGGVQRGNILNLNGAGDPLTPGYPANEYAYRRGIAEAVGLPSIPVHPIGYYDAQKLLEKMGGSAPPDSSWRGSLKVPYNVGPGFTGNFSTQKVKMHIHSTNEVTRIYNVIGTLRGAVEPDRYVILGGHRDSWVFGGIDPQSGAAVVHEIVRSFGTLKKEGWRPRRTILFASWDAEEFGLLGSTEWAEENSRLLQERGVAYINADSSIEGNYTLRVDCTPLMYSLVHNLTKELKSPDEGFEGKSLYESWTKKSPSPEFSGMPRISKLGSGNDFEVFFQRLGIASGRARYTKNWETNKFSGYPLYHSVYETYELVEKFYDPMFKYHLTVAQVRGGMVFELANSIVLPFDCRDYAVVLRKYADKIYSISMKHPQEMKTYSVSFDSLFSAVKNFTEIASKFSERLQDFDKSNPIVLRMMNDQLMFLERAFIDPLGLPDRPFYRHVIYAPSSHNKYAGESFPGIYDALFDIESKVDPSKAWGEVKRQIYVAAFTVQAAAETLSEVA

Structure (SMILES): CC(C)CC(NC(=O)C(Cc1ccccc1)NC(=O)C(CC(=O)O)NC(=O)CCC(=O)Nc1ccc(CCCC(CN2CCN(CC(=O)O)CCN(CC(=O)O)CC2)N(CC(=O)O)CC(=O)O)cc1)C(O)CC(=O)NCCCCCC(=O)NCCCCC(NC(=O)NC(CCC(=O)O)C(=O)O)C(=O)O (stereo not drawn) [3p-C-NETA-ePSMA-16, EuK(Ahx-Sta-Phe-Asp-3p-C-NETA)]
- IC50 (recombinant human PSMA): 4.61 ± 1.33 nM
- IC50 relative to reference PSMA-617 (fold higher IC50 / lower affinity) (recombinant human PSMA; vs PSMA-617): 5 fold
- storage stability ([1]; stored as a lyophilized powder): > 1 year
- storage stability ([1]; stored as an aqueous solution): > 6 months

Structure (SMILES): O=C(O)CN1CCN(CC(=O)O)CCN(CC(CCCc2ccc([N+](=O)[O-])cc2)N(CC(=O)O)CC(=O)O)CC1 (centres unmarked) [3p-C-NETA]
- stability in serum in vitro [2]: highly stable in serum in vitro for up to 11 days

Structure (SMILES): O=C(O)CC[C@H](NC(=O)N[C@@H](CCCCNC(=O)[C@H](Cc1ccc2ccccc2c1)NC(=O)[C@H]1CC[C@H](CNC(=O)CN2CCN(CC(=O)O)CCN(CC(=O)O)CCN(CC(=O)O)CC2)CC1)C(=O)O)C(=O)O [PSMA-617, reference compound]
- IC50 (recombinant human PSMA): 0.78 ± 0.3 nM

Structure (SMILES): CC(C)C[C@H](NC(=O)[C@H](Cc1ccccc1)NC(=O)[C@H](CC(=O)O)NC(=O)CCC(=O)Nc1ccc(CCCC(CN2CCN(CC(=O)[O-])CCN(CC(=O)[O-])CC2)N(CC(=O)[O-])CC(=O)O)cc1)[C@@H](O)CC(=O)NCCCCCC(=O)NCCCC[C@H](NC(=O)N[C@@H](CCC(=O)O)C(=O)O)C(=O)O.[111In+3] (some centres unmarked) [[^111In]In-3p-C-NETA-ePSMA-16]
- total cell uptake (LS174T PSMA+ cells): 1.41 ± 0.20 % ID/10^6 cells
- internalized fraction (LS174T PSMA+ cells; 10^−9 M, 2 h, 37 °C): 0.50 ± 0.16 % AD/10^6 cells
- membrane-bound fraction (LS174T PSMA+ cells; 10^−9 M, 2 h, 37 °C): 0.90 ± 0.05 % AD/10^6 cells
- cell uptake in the blocked group (LS174T PSMA+ cells; 50-fold excess of unlabeled compound): no uptake
- intact radioligand in transchelation challenge [3]: 93.2 ± 0.7% and > 90%
- logD [4]: −2.95 ± 0.19
- Blood uptake ([5]; 1 h p.i.): 0.26 ± 0.19 % ID/g
- Bone uptake ([5]; 1 h p.i.): 0.20 ± 0.05 % ID/g
- Heart uptake ([5]; 1 h p.i.): 0.15 ± 0.05 % ID/g
- Intestines uptake ([5]; 1 h p.i.): 0.59 ± 0.13 % ID/g
- Kidney uptake ([5]; 1 h p.i.): 26.70 ± 2.12 % ID/g
- Liver uptake ([5]; 1 h p.i.): 0.20 ± 0.03 % ID/g
- Lung uptake ([5]; 1 h p.i.): 0.45 ± 0.10 % ID/g
- Muscle uptake ([5]; 1 h p.i.): 0.13 ± 0.09 % ID/g
- Pancreas uptake ([5]; 1 h p.i.): 0.23 ± 0.05 % ID/g
- Prostate uptake ([5]; 1 h p.i.): 1.08 ± 0.41 % ID/g
- Skin uptake ([5]; 1 h p.i.): 0.46 ± 0.15 % ID/g
- Spleen uptake ([5]; 1 h p.i.): 1.28 ± 0.49 % ID/g
- Stomach uptake ([5]; 1 h p.i.): 0.31 ± 0.21 % ID/g
- Tumor uptake ([5]; 1 h p.i.): 1.62 ± 0.55 % ID/g
- Blood uptake ([5]; 4 h p.i.): 0.01 ± 0.01 % ID/g
- Bone uptake ([5]; 4 h p.i.): 0.03 ± 0.00 % ID/g
- Heart uptake ([5]; 4 h p.i.): 0.02 ± 0.00 % ID/g
- Intestines uptake ([5]; 4 h p.i.): 0.60 ± 0.28 % ID/g
- Kidney uptake ([5]; 4 h p.i.): 11.62 ± 0.62 % ID/g
- Liver uptake ([5]; 4 h p.i.): 0.07 ± 0.01 % ID/g
- Lung uptake ([5]; 4 h p.i.): 0.06 ± 0.01 % ID/g
- Muscle uptake ([5]; 4 h p.i.): 0.04 ± 0.00 % ID/g
- Pancreas uptake ([5]; 4 h p.i.): 0.03 ± 0.00 % ID/g
- Prostate uptake ([5]; 4 h p.i.): 0.12 ± 0.07 % ID/g
- Skin uptake ([5]; 4 h p.i.): 0.24 ± 0.15 % ID/g
- Spleen uptake ([5]; 4 h p.i.): 0.12 ± 0.01 % ID/g
- Stomach uptake ([5]; 4 h p.i.): 0.05 ± 0.02 % ID/g
- Tumor uptake ([5]; 4 h p.i.): 0.89 ± 0.58 % ID/g
- Blood uptake [5, 7]: 0.01 ± 0.00 % ID/g
- Bone uptake [5, 7]: 0.03 ± 0.01 % ID/g
- Heart uptake [5, 7]: 0.02 ± 0.00 % ID/g
- Intestines uptake [5, 7]: 0.68 ± 0.02 % ID/g
- Kidney uptake [5, 7]: 9.53 ± 1.66 % ID/g
- Liver uptake [5, 7]: 0.07 ± 0.01 % ID/g
- Lung uptake [5, 7]: 0.05 ± 0.01 % ID/g
- Muscle uptake [5, 7]: 0.02 ± 0.01 % ID/g
- Pancreas uptake [5, 7]: 0.02 ± 0.01 % ID/g
- Prostate uptake [5, 7]: 0.07 ± 0.02 % ID/g
- Skin uptake [5, 7]: 0.13 ± 0.02 % ID/g
- Spleen uptake [5, 7]: 0.05 ± 0.01 % ID/g
- Stomach uptake [5, 7]: 0.15 ± 0.10 % ID/g
- Tumor uptake [5, 7]: 0.12 ± 0.04 % ID/g
- Bone uptake ([5]; 24 h p.i.): 0.02 ± 0.00 % ID/g
- Heart uptake ([5]; 24 h p.i.): 0.01 ± 0.00 % ID/g
- Intestines uptake ([5]; 24 h p.i.): 0.04 ± 0.02 % ID/g
- Kidney uptake ([5]; 24 h p.i.): 4.27 ± 0.87 % ID/g
- Liver uptake ([5]; 24 h p.i.): 0.03 ± 0.00 % ID/g
- Lung uptake ([5]; 24 h p.i.): 0.02 ± 0.00 % ID/g
- Muscle uptake ([5]; 24 h p.i.): 0.01 ± 0.00 % ID/g
- Pancreas uptake ([5]; 24 h p.i.): 0.01 ± 0.00 % ID/g
- Prostate uptake ([5]; 24 h p.i.): 0.04 ± 0.01 % ID/g
- Skin uptake ([5]; 24 h p.i.): 0.10 ± 0.06 % ID/g
- Spleen uptake ([5]; 24 h p.i.): 0.03 ± 0.00 % ID/g
- Stomach uptake ([5]; 24 h p.i.): 0.01 ± 0.00 % ID/g
- Tumor uptake ([5]; 24 h p.i.): 0.12 ± 0.02 % ID/g
- tumor signal in SPECT/CT [6]: faint signal
